Entries after “also recorded” stand apart in the source; their conditions may differ.
Legend:
Assay type in all cases: in vivo
[1] = system: barley (Hordeum vulagare L. cv Haruna-nijo); experiment: Seed fertility (seeds produced in panicles) after auxin spreading; conditions: for seeds produced in panicles: high-temperature treated groups, 10^−4 M
Text: (§1) In an experiment to verify the effect of an auxin, the above-described nursery soil for horticultural was used. In addition, to facilitate the control of an auxin aqueous solution treatment, each pair of two rectangular planter boxes (60 mm×60 mm×100 mm (length×width×height), AGC TECHNO GLASS CO., LTD., Plant Box (Model No. CUL-JAR300)) were vertically stacked on each other. A hole having a diameter of about 1 cm was formed at the bottom center of the upper box. A 6-cm wick for an alcohol lamp with a knot was passed through the hole. Then, 300 ml of vermiculite (NITTAI Co., Ltd., vermiculite for agricultural and horticultural use) was packed thereabove. In the lower box, 0.2% (v/v) of HYPONEX (HYPONeX JAPAN CORP., LTD.) was placed as a nutrient water source for plants. Seeds of Hordeum vulagare L. cv Haruna-nijo having been stored in the dark at 4° C. were stimulated to germinate in the dark at 25° C. for 48 hours. The germinated seeds were sown at four seeds per pot at the four corners of the upper container. These sown seeds were grown in an artificial climate chamber (Nippon Medical & Chemical Instruments Co., Ltd., BIOTRON LH300RDS) under conditions of 20° C. during the day, 15° C. at night, and a 16-hour photoperiod. As the light source, 20 plant growing fluorescent tubes were used (16 tubes; National FL40S FR-P, and 4 tubes; National, FL20S FR-P).
(§2) Also in this cultivation method, the fifth leaves emerge and start to develop on Day 18 or 19 after the sowing as in the case where the culture soil was used, where the day of the sowing is regarded as Day 0. The plants were cultivated under high-temperature conditions of 30° C. during the day, 25° C. at night, and a 16-hour photoperiod from Day 19 after the sowing. Thus, a high-temperature treatment was conducted for five days (120 hours). Thereafter (on Day 24 after the sowing), the conditions were changed back to the normal conditions of 20° C. during the day, 15° C. at night, and a 16-hour photoperiod. […]

[2] = system: barley (Hordeum vulagare L. cv Haruna-nijo); experiment: Side effects of spread auxin on the plants (leaf withering)
Text: as §1
Also in this cultivation method, the fifth leaves emerge and start to develop on Day 18 or 19 after the sowing as in the case where the culture soil was used, where the day of the sowing is regarded as Day 0. The plants were cultivated under high-temperature conditions of 30° C. during the day, 25° C. at night, and a 16-hour photoperiod from Day 19 after the sowing. Thus, a high-temperature treatment was conducted for five days (120 hours). Thereafter (on Day 24 after the sowing), the conditions were changed back to the normal conditions of 20° C. during the day, 15° C. at night, and a 16-hour photoperiod.
First, 10^−3 M, 10^−2 M, and 10^−1 M stock solutions in dimethyl sulfoxide (DMSO: Wako Pure Chemical Industries, Ltd., Production Code: 043-07216) were prepared by using each of indole-3-acetic acid (IAA: Wako Pure Chemical Industries, Ltd., Production Code: 94-00183), 1-naphthyl acetic acid (NAA: Wako Pure Chemical Industries, Ltd., Production Code: 148-00092), and 2,4-dichlorophenoxyacetic acid (2,4-D: Wako Pure Chemical Industries, Ltd., Production Code: 040-18532). The stock solutions were stored in the dark at −20° C. until used. These stock solutions were thawed immediately before spread, and each were diluted 1000-fold with distilled water. Thus, solutions were prepared at three levels of 10^−6 M, 10^−5 M, and 10^−4 M, and used as auxin aqueous solutions. […]

[3] = system: barley (Hordeum vulagare L. cv Haruna-nijo); experiment: Pollen maturity, potassium iodide staining of anthers; conditions: control groups (suitable temperature cultivation); 10^−6 M, 10^−5 M or 10^−4 M
Text: as §1, §2

[4] = system: barley (Hordeum vulagare L. cv Haruna-nijo); experiment: Anther length at heading stage after spreading auxin aqueous solutions; conditions: control groups (suitable temperature cultivation); 10^−6 M, 10^−5 M or 10^−4 M
Text: as §1, §2

[5] = high-temperature treated samples, 10^−4 M

SMILES	seeds produced in panicles [1] [%]	seed fertility restoration (FIG. 10) ([1]; individual of high-temperature treated group, spread at 10^−4 M)	negative effect / side effects on the plants [2, 5]	pollen formation [3]	change of anther length at heading stage [4]	negative effect / side effects on the plants ([2]; in vivo)	negative effect on the plants (leaves) ([2]; control groups (suitable temperature cultivation), 10^−4 M)
O=C(O)Cc1cccc2ccccc12 [NAA, 1-naphthyl acetic acid]	~90	seed fertility restoration	side effects were hardly observed	formed normally	change was hardly observed		
O=C(O)Cc1c[nH]c2ccccc12 [IAA, indole-3-acetic acid]	~90			formed normally	change was hardly observed	side effects were hardly observed	
O=C(O)COc1ccc(Cl)cc1Cl [2,4-D, 2,4-dichlorophenoxyacetic acid]			leaves started to wither at an early stage; also recorded: withering up at the early stage	formed normally	change was hardly observed		leaves stared to wither at an early stage

From US8361929B2, “Method of restoring male sterility in gramineous plants and male sterility restorative agent” (Tohoku University, priority 2009, dated 2013)
